Experimental findings from US12384786B2 (MINGHUI PHARMACEUTICAL (SHANGHAI) LIMITED, priority 2019, dated 2025) are described below.

The structures appear in SMILES notation. Entries after “also recorded” stand apart in the source; their conditions may differ.

Data set [1] deals with Full-length human BTK. As to the kind of experiment: BTK inhibitory activity, Reaction Biology Corporation kinase assay. Particulars: read-out: IC50 of standard; standard in BTK/BTK (C481S) assay, ATP 10 μM.
Data set [2] relates to TMD8 cells (Human diffuse large B lymphoma cells). As to the kind of experiment: CellTiter-Glo TMD8 inhibitory activity. The format is cell-based. Particulars: cultured in vitro. An excerpt:
CellTiter-Glo kit was used to test the TMD8 inhibitory activity of compounds of examples on Human diffuse large B lymphoma cells cultured in vitro. IC50 values were shown below.

In data set [3] the test system is subcutaneous xenograft TMD8 tumor. As to the kind of experiment: Subcutaneous transplantation tumor model of TMD8 cells in NOD/SCID mice. The format is in vivo. Particulars: for inhibitory effect on growth of subcutaneous transplanted TMD8 tumor / anti-tumor effect: orally 30 mg/kg once a day or 10→5 mg/kg twice a day; for tumor growth inhibition rate (TGI): after 22 days of administration. On the procedure:
In the subcutaneous transplantation tumor model of human diffuse large B lymphoma TMD8 cells in NOD/SCID mice, the inhibitory effect of example 1 on tumor growth was tested. Tumor growth and animal body weight were presented in FIG. 1 and FIG. 2 as followed. […] Therefore, the dose was adjusted to 5 mg/kg and continued to administrate for 14 days.

Data set [4] deals with Full-length human BTK (Homo sapiens (Human), UniProt Q06187). Kind of data set: BTK inhibitory activity, Reaction Biology Corporation kinase assay.
For data set [5], the target named is Full-length human BTK (C481S) (Homo sapiens (Human), UniProt Q06187, C481S). As to the kind of experiment: BTK (C481S) inhibitory activity, Reaction Biology Corporation kinase assay. Particulars: read-out: IC50(nM) BTK(C481S); (b) ATP concentration 100 μM.
Chain of Full-length human BTK (C481S) (Q06187 whole entry C481S): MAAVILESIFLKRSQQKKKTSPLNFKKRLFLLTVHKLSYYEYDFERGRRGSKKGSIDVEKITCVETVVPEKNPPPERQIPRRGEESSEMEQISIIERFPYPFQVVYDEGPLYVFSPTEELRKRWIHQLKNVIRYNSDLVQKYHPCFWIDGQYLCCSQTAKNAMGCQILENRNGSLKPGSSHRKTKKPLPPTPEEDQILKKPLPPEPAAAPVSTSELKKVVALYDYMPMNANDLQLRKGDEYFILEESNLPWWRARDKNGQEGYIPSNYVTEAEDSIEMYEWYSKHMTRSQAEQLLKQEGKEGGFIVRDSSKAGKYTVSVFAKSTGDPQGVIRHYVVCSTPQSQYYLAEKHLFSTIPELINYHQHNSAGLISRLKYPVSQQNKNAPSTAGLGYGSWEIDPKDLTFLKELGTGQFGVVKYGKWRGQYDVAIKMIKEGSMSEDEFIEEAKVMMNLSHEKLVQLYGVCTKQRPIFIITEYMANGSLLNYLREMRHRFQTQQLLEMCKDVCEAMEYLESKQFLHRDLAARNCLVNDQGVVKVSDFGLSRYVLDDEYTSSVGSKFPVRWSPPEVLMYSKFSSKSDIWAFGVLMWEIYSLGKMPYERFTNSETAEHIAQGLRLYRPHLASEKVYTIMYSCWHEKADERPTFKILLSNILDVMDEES

Chain of Full-length human BTK (Homo sapiens (Human), UniProt Q06187) (Q06187 whole entry): as the sequence (Q06187 whole entry C481S) above, with S481C counted along it

For the compound `CN[C@@H]1C[C@H]2O[C@@](C)([C@@H]1OC)n1c3ccccc3c3c4c(c5c6ccccc6n2c5c31)C(=O)NC4` [Starsporin, reference compound], the IC50 on Full-length human BTK [1] was 3.94 nM.
On to `Nc1ncnc2c1c(-c1ccc(Oc3ccccc3)cc1)nn2[C@@H]1CCC[C@@H](O)C1` [Example 1, (1R,3R)-3-(4-amino-3-(4-phenoxyphenyl)-1h-pyrazole[3,4-d]pyrimidin-1-yl)cyclohex-1-ol], for which the IC50 in data set [2] is 20 nM; on Full-length human BTK [4] (read-out: IC50(nM) BTK, (b) ATP concentration 100 μM) it was 8.1 nM; in data set [5] it was 3.4 nM. Further, the animal body weight result in data set [3] (10 mg/kg orally twice a day for 8 successive days) was “decreased slightly”. In addition, the “effect on animal body weight” value in data set [3] (30 mg/kg orally once a day) is “no significant effect”. Besides, the “influence on the body weight of animals” value in data set [3] (during administration, treatment groups overall) is given as “without showing obvious influence”. Moreover, the “inhibitory effect on growth of subcutaneous transplanted TMD8 tumor / anti-tumor effect” value is recorded as “obvious inhibitory effect” in data set [3] and “significant anti-tumor effect; also recorded: significantly inhibited the growth of tumor” in data set [3] (listed as example 1). Moreover, the figures for the “tumor growth inhibition rate (TGI)” value in data set [3] (orally once a day at 30 mg/kg) and in data set [3] (orally twice a day at 10→5 mg/kg) were 49.6% and 52.7%, respectively. For the same compound, on Full-length human BTK [4] (read-out: BTK inhibitory rate(%)), the inhibition at 0.005 µM amounted to 60%.

Usually IC50 stands for the concentration that gives 50% inhibition.
